Our source for the activity values is EP0491441A1, “Fungicidal isoquinoline derivatives” (SHELL INTERNATIONALE RESEARCH MAATSCHAPPIJ B.V., priority 1990, dated 1992).

Type in all cases: in vivo
Test [1] concerns powdery mildew in barley. Briefly: Curative (C) activity against powdery mildew in barley. The following applies: Hordeum vulgare, concentration 100 ppm. On the procedure:
(§1) In further tests, the residual (R) and curative (C) activities of various compounds against powdery mildew in barley and wheat was determined at various concentrations of the test compounds.

The test system of test [2] is powdery mildew in barley. As to the kind of experiment: Residual (R) activity against powdery mildew in barley. The following applies: Hordeum vulgare. On the procedure: as §1
For test [3], the system named is powdery mildew in wheat. Briefly: Residual (R) activity against powdery mildew in wheat. The following applies: Triticum aestivum, concentration 400 ppm. On the procedure: as §1
The test system of test [4] is powdery mildew in wheat. Briefly: Curative (C) activity against powdery mildew in wheat. The following applies: Triticum aestivum, concentration 400 ppm. On the procedure: as §1

Regarding `CCCOc1cc2c(-c3c(Cl)cccc3Cl)[n+]([O-])ccc2cc1OCC` [Example 6, 1-(2,6-Dichlorophenyl)-6-ethoxy-7-propoxyisoquinoline N-oxide], the activity at 100 ppm in the test with powdery mildew in barley [1] and in the test with powdery mildew in barley [2] (concentration 100 ppm) was 100% each time. In addition, the figures for the activity at 400 ppm in the test with powdery mildew in wheat [3] and in the test on powdery mildew in wheat [4] were 98.8% and 68.5%, respectively.
In the test on powdery mildew in barley [1], `CCCOc1cc2c(cc1OCC)CC[N+]([O-])=C2c1ccccc1[N+](=O)[O-]` [Example 7, 1-(2-nitrophenyl)-3,4-dihydro-6-ethoxy-7-propoxyisoquinoline-N-oxide] returned an activity at 100 ppm of 100%. In addition, the activity at 400 ppm stood at 75% with powdery mildew in barley [2] (concentration 400 ppm), 94% with powdery mildew in wheat [3] and 23% in the test with powdery mildew in wheat [4].
